Test results from patent US9440933B2, “Azole derivative, method for producing same, intermediate compound, and agricultural or horticultural chemical agent and industrial material protecting agent” (KUREHA CORPORATION, priority 2011, dated 2016).

Legend:
[1] = tested on: Wheat fusarium blight-causing microbe (Fusarium graminearum); type: cell-based; details: 50 mg/L
[2] = tested on: Wheat eye spot-causing microbe (Pseudocercoporella herpotrichoides); test: Antimicrobial activity to various pathogenic microbes: P.h; details: 50 mg/L
Description: (§1) An inventive compound was dissolved in dimethylsulfoxide 2 ml. The solution 0.6 ml was added to a PDA medium (potato-dextrose-agar medium) 60 ml at around 60° C.
(§2) The plates were cultured at 25° C. for 14 days after inoculation and the diameter of the microbial colony was determined. Hyphal expansion-inhibiting rate was calculated according to the following equation: R=100(dc−dt)/dc (wherein, R: hyphal expansion-inhibiting rate (%), dc: diameter of microbial colony on non-treated flat plate, dt: diameter of microbial colony on chemically-treated flat plate).
(§3) The results thus obtained were evaluated in 5 stages according to the criteria below:
Wheat eye spot-causing microbe (Pseudocercoporella herpotrichoides) P.h

[3] = tested on: Cucumber Fusarium wilt-causing microbe (Fusarium oxysporum); test: Antimicrobial activity to various pathogenic microbes: F.c; details: 50 mg/L
Description: as §1
(§4) A flat plate containing a test microbe (wheat leaf blight-causing microbe) cultured separately was punched into pieces with a cork borer having a diameter of 4 mm and the circular plate obtained was placed on the flat plate media containing the chemical described above. The plates were cultured at 25° C. for 14 days after inoculation and the diameter of the microbial colony was determined. Hyphal expansion-inhibiting rate was calculated according to the following equation: R=100(dc−dt)/dc (wherein, R: hyphal expansion-inhibiting rate (%), dc: diameter of microbial colony on non-treated flat plate, dt: diameter of microbial colony on chemically-treated flat plate).
as §3

[4] = tested on: Sclerotinia rot-causing microbe (Sclerotinia sclerotiorum); test: Antimicrobial activity to various pathogenic microbes: S.s; details: 50 mg/L
Description: as §1, §4, §3
Sclerotinia rot-causing microbe (Sclerotinia sclerotiorum) S.s

[5] = tested on: Barley loose smut-causing microbe (Ustilago nuda); test: Antimicrobial activity to various pathogenic microbes: U.n; details: 50 mg/L
Description: as §1, §2, §3
Barley loose smut-causing microbe (Ustilago nuda) U.n

[6] = tested on: Rice bakanae disease-causing microbe (Gibberella fujikuroi); test: Antimicrobial activity to various pathogenic microbes: G.f; details: 50 mg/L
[7] = tested on: wheat leaf blight-causing microbe; test: Antimicrobial activity to wheat leaf blight-causing microbe (PDA plate, hyphal expansion inhibition); type: cell-based, Septoria tritici; details: PDA medium, 25° C., 14 days; for inhibition at 50 µg/mL / inhibition at 1.25 µg/mL: 336 h; for inhibition at 50 µg/mL: read-out: Growth inhibition; for inhibition at 1.25 µg/mL: test sample concentration 1.25 mg/L, read-out: hyphal expansion-inhibiting rate
Description: In this Test Example, antimicrobial activity of the inventive compounds to wheat leaf blight-causing microbe was determined and compared with that of the comparative compound (1).

[8] = tested on: Rice blast-causing microbe (Pyricularia oryzae); type: cell-based; details: 50 mg/L
wheat = test: Damage to wheat (growth inhibition) by seed treatment (pot test); details: 2 mg in DMSO applied to wheat seeds 1 g, 14 to 28 days after seeding, larger index = smaller damage
[9] = tested on: wheat powdery mildew-causing microbes; test: Controlling activity to wheat powdery mildew of seed treatment (pot test); type: in vivo, Erysiphe graminis f. sp tritici; details: 2 mg in DMSO applied to wheat seeds 1 g, 14 to 28 days after seeding
Description: Controlling activity to wheat powdery mildew was examined in a pot test. Each of the inventive compounds […]-53, and a comparative compound (1) was weighed in an amount of 2 mg and dissolved in DMSO (18 μl). The solution thus prepared was applied to wheat seeds 1 g in a vial, 8 wheat seeds were seeded in a 80 cm^2 pot. The wheat was grown, as water was supplied from blow, in a greenhouse where wheat powdery mildew-causing microbes are present abundantly. The incidence rate was determined and the controlling rate and additionally the controlling index calculated 14 to 28 days after seeding. The controlling rate was calculated and the wheat powdery mildew controlling index determined according to the following equation: Controlling rate=(1-Incidence rate in treated region/Incidence rate in non-treated region)×100(%) [table]

[10] = tested on: Apple alternaria blotch-causing microbe (Alternaria alternata); test: Antimicrobial activity to various pathogenic microbes: A.m; details: 50 mg/L
[11] = tested on: Gray mold-causing microbe (Botrytis cinerea); test: Antimicrobial activity to various pathogenic microbes: B.c; details: 50 mg/L
Description: as §1, §4
(§5) In this Test Example, the antimicrobial activity of the inventive compounds to various plant disease-causing fungi and industrial material-eroding microorganisms was studied by the method described in Example 1.
as §3
Gray mold-causing microbe (Botrytis cinerea) B.c

[12] = tested on: wheat leaf rust-causing microbe; test: Wheat leaf rust-controlling activity (foliar spray, pot test); type: in vivo, Puccinia recondita; details: Concentration 25 g/ha; wettable powder sprayed on wheat (Norin No. 61), 9 to 14 days after inoculation
[13] = tested on: Barley scald-causing microbe (Rhynchosporium secalis); test: Antimicrobial activity to various pathogenic microbes: R.sec; details: 50 mg/L
[14] = tested on: Wheat glume blotch-causing microbe (Phaeosphaeria nodorum); test: Antimicrobial activity to various pathogenic microbes: P.n; details: 50 mg/L
Description: as §1, §4, §5, §3
Wheat glume blotch-causing microbe (Phaeosphaeria nodorum) P.n

SMILES | Growth inhibition (hyphal expansion-inhibiting rate grade) F.g [1] | Growth inhibition (hyphal expansion-inhibiting rate grade) P.h [2] | Growth inhibition (hyphal expansion-inhibiting rate grade) F.c [3] | Growth inhibition (hyphal expansion-inhibiting rate grade) S.s [4] | Growth inhibition (hyphal expansion-inhibiting rate grade) U.n [5] | Growth inhibition (hyphal expansion-inhibiting rate grade) G.f [6] | Growth inhibition ([7]; Concentration 50 mg/L) | Growth inhibition (hyphal expansion-inhibiting rate grade) P.o [8] | Damage index Growth inhibition (wheat) | Controlling index Wheat powdery mildew [9] | Growth inhibition (hyphal expansion-inhibiting rate grade) A.m [10] | Growth inhibition (hyphal expansion-inhibiting rate grade) B.c [11] | Controlling index [12] | Growth inhibition (hyphal expansion-inhibiting rate grade) R.sec [13] | Growth inhibition (hyphal expansion-inhibiting rate grade) P.n [14] | inhibition at 50 µg/mL ([7]; Concentration 50 mg/L) | inhibition at 1.25 µg/mL [7]
C#CCOC(=O)[C@]1(C)CC[C@@H](Cc2ccc(Cl)cc2)[C@]1(O)Cn1cncn1 (racemic) [Compound I-5, 2-propynyl-(1RS,2RS,3SR)-3-(4-chlorobenzyl)-2-hydroxy-1-methyl-2-(1H-1,2,4-triazol-1-ylmethyl)cyclopentanecarboxylate] | 5 (hyphal expansion-inhibiting rate: 80% or more) | 5 (hyphal expansion-inhibiting rate: 80% or more) | 5 (hyphal expansion-inhibiting rate: 80% or more) | 5 (hyphal expansion-inhibiting rate: 80% or more) | 5 (hyphal expansion-inhibiting rate: 80% or more) | 5 (hyphal expansion-inhibiting rate: 80% or more) | 5 (hyphal expansion-inhibiting rate: 80% or more) | 5 (hyphal expansion-inhibiting rate: 80% or more) | 1 (60% or more and less than 80%) | 5 (Controlling rate: 40 or more) | 5 (hyphal expansion-inhibiting rate: 80% or more) | 5 (hyphal expansion-inhibiting rate: 80% or more) | 5 (81 to 100) | 5 (hyphal expansion-inhibiting rate: 80% or more) | 5 (hyphal expansion-inhibiting rate: 80% or more) |  | 
CCCOC(=O)[C@]1(C)CC[C@@H](Cc2ccc(Cl)cc2)[C@]1(O)Cn1cncn1 (racemic) [Compound I-6, n-propyl-(1RS,2RS,3SR)-3-(4-chlorobenzyl)-2-hydroxy-1-methyl-2-(1H-1,2,4-triazol-1-ylmethyl)cyclopentanecarboxylate] | 5 (hyphal expansion-inhibiting rate: 80% or more) | 5 (hyphal expansion-inhibiting rate: 80% or more) | 5 (hyphal expansion-inhibiting rate: 80% or more) | 5 (hyphal expansion-inhibiting rate: 80% or more) | 5 (hyphal expansion-inhibiting rate: 80% or more) | 5 (hyphal expansion-inhibiting rate: 80% or more) |  | 5 (hyphal expansion-inhibiting rate: 80% or more) | 3 (20% or more and less than 40%) | 5 (Controlling rate: 40 or more) | 5 (hyphal expansion-inhibiting rate: 80% or more) | 5 (hyphal expansion-inhibiting rate: 80% or more) | 5 (81 to 100) | 5 (hyphal expansion-inhibiting rate: 80% or more) | 5 (hyphal expansion-inhibiting rate: 80% or more) | > 80% | ≥ 80%
COC(=O)[C@]1(C)CC[C@H](Cc2ccc(F)cc2)[C@@]1(O)Cn1cncn1 (racemic) [Compound I-53, methyl-(1RS, 2SR,3RS)-3-(4-fluorobenzyl)-2-hydroxy-1-methyl-2-(1H-1,2,4-triazol-1-ylmethyl)cyclopentanecarboxylate] | 5 (hyphal expansion-inhibiting rate: 80% or more) | 5 (hyphal expansion-inhibiting rate: 80% or more) | 5 (hyphal expansion-inhibiting rate: 80% or more) | 5 (hyphal expansion-inhibiting rate: 80% or more) | 5 (hyphal expansion-inhibiting rate: 80% or more) | 5 (hyphal expansion-inhibiting rate: 80% or more) |  | 5 (hyphal expansion-inhibiting rate: 80% or more) | 1 (60% or more and less than 80%) | 5 (Controlling rate: 40 or more) | 5 (hyphal expansion-inhibiting rate: 80% or more) | 5 (hyphal expansion-inhibiting rate: 80% or more) | 5 (81 to 100) | 5 (hyphal expansion-inhibiting rate: 80% or more) | 5 (hyphal expansion-inhibiting rate: 80% or more) | > 80% | ≥ 80%
COC(=O)[C@]1(C)CC[C@H](Cc2ccc(Cl)cc2)[C@@]1(O)Cn1cncn1 (racemic) [Compound I-132, methyl-(1RS,2SR,3RS)-3-(4-chlorobenzyl)-2-hydroxy-1-methyl-2-(1H-1,2,4-triazol-1-ylmethyl)cyclopentanecarboxylate] | 5 (hyphal expansion-inhibiting rate: 80% or more) | 5 (hyphal expansion-inhibiting rate: 80% or more) | 5 (hyphal expansion-inhibiting rate: 80% or more) | 5 (hyphal expansion-inhibiting rate: 80% or more) | 5 (hyphal expansion-inhibiting rate: 80% or more) | 5 (hyphal expansion-inhibiting rate: 80% or more) |  | 5 (hyphal expansion-inhibiting rate: 80% or more) | 5 | 5 (Controlling rate: 40 or more) | 5 (hyphal expansion-inhibiting rate: 80% or more) | 5 (hyphal expansion-inhibiting rate: 80% or more) | 5 (81 to 100) | 5 (hyphal expansion-inhibiting rate: 80% or more) | 5 (hyphal expansion-inhibiting rate: 80% or more) | > 80% | 
